Experiments:
[1] = set-up: method as in PMID 28551311; conditions: in vivo microdialysis technique, in words; cited from earlier work
[2] = set-up: method as in PMID 25793541; conditions: at pH 7; cited from earlier work
[3] = phase-solubility study, β-CD; assay type: physicochemical; conditions: 30 mM phosphate buffer pH 7.4, room temperature
Description: (§1) Based on our ACE measurements, the promising CDs were selected for phase-solubility studies, along with the most widely used CD excipients, to investigate the effect of CD type and its concentration on mitragynine solubility. The experiments were conducted under conditions similar to those in the ACE measurements, applying 30 mM phosphate buffer (pH 7.4) and room temperature.
(§2) UV spectra and chromatograms were recorded at 200–400 nm, and the chromatogram obtained at 226 nm was used for quantitative analyses.
(§3) Solubility measurements were performed according to Higuchi and Connors. To each 1 mg mitragynine sample, the selected cyclodextrins were added. The final concentration of the CDs was in the range of 0–1 (m/v) %. Suspensions were shaken at room temperature for 24 h and filtered using 0.22 μm filters. The mitragynine concentration in the samples was determined by the above-described UHPLC-UV method. The solubility diagrams were constructed, and the stability constant (Kstab) and complexation efficacy (CE) were calculated using the following formulas:(5) Kstab=slope/S0(1−slope) (6) CE=slope/1−slope where S0 is the intrinsic solubility of a poorly soluble drug. The experiments were performed in a 30 mM phosphate buffer (pH 7.4).

[4] = set-up: method as in PMID 20454783; conditions: rats, in words; cited from earlier work
[5] = phase-solubility study, HP-β-CD; assay type: physicochemical; conditions: 30 mM phosphate buffer pH 7.4, room temperature
Description: as §1, §2, §3

[6] = ACE complex stability, S-γ-CD; assay type: physicochemical; conditions: sulfated-γ-CD DS~14, 30 mM phosphate buffer pH 7.4, 25 °C
Description: To investigate the CD complexation behavior of the four kratom alkaloids, we aimed to develop an ACE method for a systematic comparative study. […] To ensure sufficient buffer capacity and to avoid excessive current and Joule heat generation, the buffer concentration was set to 30 mM, and the applied voltage was 15 kV.
The ACE experiments were performed by using Agilent 7100 and HP^3DCE instruments (Agilent Technologies, Waldbronn, Germany). Untreated fused silica capillaries (total length of 48.5 cm, effective length of 40 cm, inner diameter of 50 μm) were purchased from Agilent Technologies. The new capillaries were conditioned with a 1 M NaOH wash for 1 h, followed by a 30 min wash each with 0.1 M NaOH and purified water. Prior to all runs, the capillary was preconditioned by rinsing with background electrolyte for 3 min. During the measurements, 30 mM phosphate buffer at pH 7.4 (30 mM Na2HPO4-NaOH) was used. The background electrolyte contained CDs at various concentrations. […] The electropherograms were recorded at four wavelengths (200 nm, 210 nm, 215 nm, and 220 nm), and the data were evaluated at 215 nm. […] The measurements were evaluated using Origin and CEval software (v. 0.6i3). […]

[7] = phase-solubility study, S-β-CD; assay type: physicochemical; conditions: 30 mM phosphate buffer pH 7.4, room temperature
Description: as §1, §2, §3

[8] = set-up: method as in PMID 24841968; conditions: after 2 h; cited from earlier work
[9] = phase-solubility study, RAME-β-CD; assay type: physicochemical; conditions: 30 mM phosphate buffer pH 7.4, room temperature
Description: as §1, §2, §3

## mitragynine
[1]
  blood–brain barrier permeability: excellent
[2]
  logD: 1.73
[3]; 24 h, CD 0–1 (m/v) %
  Kstab with β-CD (phase solubility): 55 M⁻¹
[3]; phase solubility
  complexation efficacy (CE) with β-CD: 0.0021
[4]
  oral bioavailability: limited
[5]; 24 h, CD 0–1 (m/v) %
  Kstab with HP-β-CD (phase solubility): 30 M⁻¹
[5]; phase solubility
  complexation efficacy (CE) with HP-β-CD: 0.0011
[6]
  complex stability constant (Kstab) with S-γ-CD: 810 ± 75 M⁻¹
[7]; 24 h, CD 0–1 (m/v) %
  Kstab with S-β-CD (phase solubility): 340 M⁻¹
[7]; phase solubility
  complexation efficacy (CE) with S-β-CD: 0.0127
[8]
  degraded under acidic conditions: more than 26%
[9]; 24 h, CD 0–1 (m/v) %
  Kstab with RAME-β-CD (phase solubility): 60 M⁻¹
[9]; phase solubility
  complexation efficacy (CE) with RAME-β-CD: 0.0023
